Results on 51 compounds are retold here after patent US10071082B2, “Antimicrobial agents” (Rutgers, The State University of New Jersey, priority 2013, dated 2018).

For one test, the system named is MRSA. The test can be described thus: Test A antibacterial assay, broth microdilution MIC. Format: cell-based. To be noted: Staphylococcus aureus, read-out: MIC MRSA. The method, then:
(§1) Antibacterial activity can be determined as per Clinical and Laboratory Standards Institute (CLSI) guidelines using a broth microdilution assay in which log-phase bacteria are grown at 37° C. in appropriate medium containing two-fold serial dilutions of a compound to yield final concentrations ranging from 256 to 0.06 μg/mL. For determination of minimal inhibitory concentration (MIC) values, bacterial growth is monitored after 24 to 48 hours by measuring optical density at 600 nm.
On the technique in general: Dilution methods test growth across graded concentrations, often in twofold steps.

Another test relates to MSSA. The test is described as above. Type of test: cell-based. To be noted: Staphylococcus aureus, read-out: MIC MSSA. The method, then:
as §1

Where [1] appears, read: MIC determined in the presence of 50% mouse serum.
Setting [2] is: MIC values may be lower as solubility and aggregate formation may reduce observed activity.

Values after ≈ are worked out from the molar mass of the structure shown. Like-named read-outs stand apart in the source and are kept apart here. Where only a bound is given, the exact number is not on record here.

`O=CNC(=O)c1c(F)ccc(OCc2nc3cc(Cl)ccc3s2)c1F` [Example 1]: the MIC in the test on MRSA came out at 0.125 µg/mL (≈ 0.327 µM); in the test with MSSA it was 0.25 µg/mL (≈ 0.653 µM).

For `CN(C)/C=N/C(=O)c1c(F)ccc(OCc2nc3cc(Cl)ccc3s2)c1F` [Example 1b, 3-((5-Chlorobenzo[d]thiazol-2-yl)methoxy)-N-((dimethylamino)methylene)-2,6-difluorobenzamide], the MIC in the test on MRSA and in the test with MSSA was 0.125 µg/mL (≈ 0.305 µM) in each case.

Turning to `CC(=O)NC(=O)c1c(F)ccc(OCc2nc3cc(Cl)ccc3s2)c1F` [Example 2], the MIC came to 4 µg/mL (≈ 10.1 µM) in the test on MRSA and 2 µg/mL (≈ 5.04 µM) with MSSA.

On to `C/C(=N\C(=O)c1c(F)ccc(OCc2nc3cc(Cl)ccc3s2)c1F)N(C)C` [Example 2a, 3-((5-Chlorobenzo[d]thiazol-2-yl)methoxy)-N-(1-(dimethylamino)ethylidene)-2,6-difluorobenzamide], for which the MIC with MRSA was 4 µg/mL (≈ 9.44 µM); in the test on MSSA it was 2 µg/mL (≈ 4.72 µM).

On to `O=CNC(=O)c1c(F)ccc(OCc2nc3cc(Cl)cnc3s2)c1F` [Example 3], for which the MIC in the test on MRSA and in the test with MSSA was 0.5 µg/mL (≈ 1.3 µM) throughout.

Consider `CN(C)/C=N/C(=O)c1c(F)ccc(OCc2nc3cc(Cl)cnc3s2)c1F` [Example 3b, 3-((6-Chlorothiazolo[5,4-b]pyridin-2-yl)methoxy)-N-((dimethylamino)methylene)-2,6-difluorobenzamide], for which the MIC stood at 1 µg/mL (≈ 2.43 µM) with MRSA and 0.5 µg/mL (≈ 1.22 µM) in the test on MSSA.

On to `CC(=O)NC(=O)c1c(F)ccc(OCc2nc3cc(Cl)cnc3s2)c1F` [Example 4], for which the MIC in the test with MSSA (setting [1]) was found to be 2 µg/mL.

With `C/C(=N\C(=O)c1c(F)ccc(OCc2nc3cc(Cl)cnc3s2)c1F)N(C)C` [Example 4a, 3-((6-Chlorothiazolo[5,4-b]pyridin-2-yl)methoxy)-N-(1-(dimethylamino)ethylidene)-2,6-difluorobenzamide], the MIC in the test on MRSA and in the test on MSSA was 4 µg/mL (≈ 9.41 µM) in each case.

As to `CCCC(=O)NC(=O)c1c(F)ccc(OCc2nc3cc(Cl)ccc3s2)c1F` [Example 6], the MIC in the test on MRSA (setting [2]) is 1 µg/mL (≈ 2.35 µM); in the test on MSSA (setting [2]), 0.5 µg/mL (≈ 1.18 µM).

On to `O=C(NC(=O)C1CCCCC1)c1c(F)ccc(OCc2nc3cc(Cl)ccc3s2)c1F` [Example 7], for which the MIC in the test on MSSA (setting [2]) is 0.5 µg/mL (≈ 1.08 µM).

Turning to `CN1CCC(C(=O)NC(=O)c2c(F)ccc(OCc3nc4cc(Cl)ccc4s3)c2F)CC1` [Example 8], the MIC in the test with MRSA and in the test on MSSA was 0.5 µg/mL (≈ 1.04 µM) each time.

As to `O=C(NC(=O)c1c(F)ccc(OCc2nc3cc(Cl)ccc3s2)c1F)c1ccccc1` [Example 9], the MIC with MSSA (setting [2]) stood at 0.5 µg/mL (≈ 1.09 µM).

As to `O=C(CCl)NC(=O)c1c(F)ccc(OCc2nc3cc(Cl)ccc3s2)c1F` [Example 10], the MIC came out at 0.25 µg/mL (≈ 0.58 µM) with MRSA and 0.125 µg/mL (≈ 0.29 µM) in the test on MSSA.

Take `CC1CCN(CC(=O)NC(=O)c2c(F)ccc(OCc3nc4cc(Cl)ccc4s3)c2F)CC1` [Example 11]: the MIC turned out to be 1 µg/mL (≈ 2.02 µM) in the test on MRSA and 0.5 µg/mL (≈ 1.01 µM) in the test with MSSA.

Take `O=C(Cn1ccnc1)NC(=O)c1c(F)ccc(OCc2nc3cc(Cl)ccc3s2)c1F` [Example 12]: the figures for the MIC in the test with MRSA and in the test with MSSA were 0.25 µg/mL (≈ 0.54 µM) and 0.125 µg/mL (≈ 0.27 µM), respectively.

Consider `O=C(NC(=O)c1c(F)ccc(OCc2nc3cc(Cl)ccc3s2)c1F)c1ccc(CCl)cc1` [Example 13], for which the MIC in the test on MSSA (setting [1]) worked out at 4 µg/mL.

On to `O=C(c1c(F)ccc(OCc2nc3cc(Cl)ccc3s2)c1F)N(C(=O)C(F)(F)F)C(=O)C(F)(F)F` [Example 14], for which, in the test on MSSA (setting [1]), the MIC turned out to be 2 µg/mL.

Consider `CS(=O)(=O)NC(=O)c1c(F)ccc(OCc2nc3cc(Cl)ccc3s2)c1F` [Example 15], for which the MIC with MRSA and in the test with MSSA was 8 µg/mL (≈ 18.5 µM) throughout.

As to `O=C(NCO)c1c(F)ccc(OCc2nc3cc(Cl)ccc3s2)c1F` [Example 16], the MIC with MRSA and with MSSA was 2 µg/mL (≈ 5.2 µM) throughout.

For `O=C(NC(=O)c1c(F)ccc(OCc2nc3cc(Cl)ccc3s2)c1F)c1c(Cl)ccnc1Cl` [Example 18], the MIC in the test on MRSA and in the test on MSSA was above 64 µg/mL in each case.

Turning to `O=C(NC(=O)c1c(F)ccc(OCc2nc3cc(Cl)ccc3s2)c1F)c1ccnc(Cl)c1Cl` [Example 19], the MIC with MRSA is 4 µg/mL (≈ 7.56 µM); with MSSA it was above 64 µg/mL.

`CC(C)(C)C(=O)NC(=O)c1c(F)ccc(OCc2nc3cc(Cl)ccc3s2)c1F` [Example 20]: the MIC was 4 µg/mL (≈ 9.11 µM) with MRSA and above 64 µg/mL in the test with MSSA.

In the case of `O=C(Cc1ccccc1)NC(=O)c1c(F)ccc(OCc2nc3cc(Cl)ccc3s2)c1F` [Example 21], the MIC was 2 µg/mL (≈ 4.23 µM) in the test with MRSA and above 64 µg/mL in the test with MSSA.

Consider `O=C(NC(=O)C1CCC1)c1c(F)ccc(OCc2nc3cc(Cl)ccc3s2)c1F` [Example 22], for which the MIC stood at 2 µg/mL (≈ 4.58 µM) with MRSA and 0.5 µg/mL (≈ 1.14 µM) in the test with MSSA.

As for `CC(C(=O)NC(=O)c1c(F)ccc(OCc2nc3cc(Cl)ccc3s2)c1F)c1ccccc1` (stereo not shown) [Example 23], the MIC in the test on MRSA is 2 µg/mL (≈ 4.11 µM); in the test on MSSA, above 64 µg/mL.

For the compound `O=C(NC(=O)c1c(F)ccc(OCc2nc3cc(Cl)ccc3s2)c1F)c1c(Cl)cccc1Cl` [Example 24], the MIC with MRSA and in the test with MSSA was above 64 µg/mL in each case.

In the case of `CCC(C)C(=O)NC(=O)c1c(F)ccc(OCc2nc3cc(Cl)ccc3s2)c1F` (stereo not shown) [Example 25], the MIC in the test on MRSA is 2 µg/mL (≈ 4.56 µM); in the test on MSSA, above 64 µg/mL.

With `COC(=O)NC(=O)c1c(F)ccc(OCc2nc3cc(Cl)ccc3s2)c1F` [Example 26], the MIC in the test with MRSA was 8 µg/mL (≈ 19.4 µM); in the test on MSSA, above 64 µg/mL.

`CN(C)C(=O)NC(=O)c1c(F)ccc(OCc2nc3cc(Cl)ccc3s2)c1F` [Example 27]: the MIC in the test on MRSA and with MSSA was above 64 µg/mL throughout.

In the case of `CCOC(=O)NC(=O)c1c(F)ccc(OCc2nc3cc(Cl)ccc3s2)c1F` [Example 28], the MIC in the test on MRSA is 8 µg/mL (≈ 18.7 µM); in the test with MSSA, above 64 µg/mL.

As for `COc1cccc(COC(=O)NC(=O)c2c(F)ccc(OCc3nc4cc(Cl)ccc4s3)c2F)c1` [Example 29], the MIC with MRSA was 32 µg/mL (≈ 61.7 µM); with MSSA, 8 µg/mL (≈ 15.4 µM).

As for `CC(C)OC(=O)NC(=O)c1c(F)ccc(OCc2nc3cc(Cl)ccc3s2)c1F` [Example 30], the MIC was 2 µg/mL (≈ 4.54 µM) in the test with MRSA and above 64 µg/mL with MSSA.

Regarding `O=C(NC(=O)c1c(F)ccc(OCc2nc3cc(Cl)ccc3s2)c1F)OCCF` [Example 31], the MIC with MRSA is 4 µg/mL (≈ 8.99 µM); in the test with MSSA it was above 64 µg/mL.

For `O=C(NC(=O)c1c(F)ccc(OCc2nc3cc(Cl)ccc3s2)c1F)Oc1ccccc1` [Example 32, Phenyl(3-((5-chlorobenzo[d]thiazol-2-yl)methoxy)-2,6-difluorobenzoyl)carbamate], the MIC with MRSA and with MSSA was 4 µg/mL (≈ 8.42 µM) each time.

For the compound `CN1CCN(C(=O)NC(=O)c2c(F)ccc(OCc3nc4cc(Cl)ccc4s3)c2F)CC1` [Example 33], the MIC in the test with MRSA and with MSSA was above 64 µg/mL in each case.

Consider `CN1CCC(OC(=O)NC(=O)c2c(F)ccc(OCc3nc4cc(Cl)ccc4s3)c2F)CC1` [Example 34, 1-methylpiperidin-4-yl (3-((5-chlorobenzo[d]thiazol-2-yl)methoxy)-2,6-difluorobenzoyl)carbamate], for which the MIC in the test with MRSA turned out to be 4 µg/mL (≈ 8.07 µM); in the test on MSSA it was 32 µg/mL (≈ 64.5 µM).

For the compound `CN1CCN(C(=O)NC(=O)c2c(F)ccc(OCc3nc4cc(Cl)cnc4s3)c2F)CC1` [Example 35], the MIC in the test with MRSA was found to be 2 µg/mL (≈ 4.15 µM); in the test on MSSA, 0.25 µg/mL (≈ 0.519 µM).

Regarding `CC(=O)NC(=O)c1c(F)ccc(OCc2cccc(-c3ccc(C(C)(C)C)cc3)c2)c1F` [Example 36], the MIC in the test with MRSA and in the test with MSSA was above 64 µg/mL each time.

Consider `CC(C)(C)c1cc(C(=O)NC(=O)c2c(F)ccc(OCc3nc4cc(Cl)ccc4s3)c2F)cc(C(C)(C)C)c1` [Example 37], for which the results for the MIC in the test with MRSA and with MSSA were 8 µg/mL (≈ 14 µM) and above 64 µg/mL, respectively.

For the compound `CC(=O)NC(=O)c1cccc(OCc2nc3cc(Cl)ccc3s2)c1` [Example 38], the MIC in the test on MRSA and in the test on MSSA was above 64 µg/mL throughout.

Regarding `CC(=O)NC(=O)c1c(N2CCN(C)CC2)ccc(OCc2nc3cc(Cl)ccc3s2)c1F` [Example 39], the MIC with MRSA and with MSSA was above 64 µg/mL in each case.

Turning to `CCC(C)C(=O)NC(=O)c1c(F)ccc(OCc2nc3cc(Cl)cnc3s2)c1F` (stereo not shown) [Example 40], the MIC in the test on MRSA is 2 µg/mL (≈ 4.55 µM); with MSSA, above 64 µg/mL.

`CN1CCC(C(=O)NC(=O)c2c(Cl)ccc(OCc3nc4cc(Cl)cnc4s3)c2F)CC1` [Example 41]: the MIC came out at 8 µg/mL (≈ 16.1 µM) in the test on MRSA and 4 µg/mL (≈ 8.04 µM) with MSSA.

`CN1CCC(C(=O)NC(=O)c2c(F)ccc(OC(CO)c3nc(-c4ccc(C(F)(F)F)cc4)c(Br)o3)c2F)CC1` (stereo not shown) [Example 42]: the MIC with MRSA is 16 µg/mL (≈ 25.3 µM); with MSSA, 1 µg/mL (≈ 1.58 µM).

With `CCC(=O)N(C(=O)CC)C(=O)c1c(F)ccc(OCc2nc3cc(Cl)ccc3s2)c1F` [Example 43], the MIC with MRSA and with MSSA was 64 µg/mL (≈ 137 µM) throughout.

`CN1CCC(C(=O)NC(=O)c2c(F)ccc(OCc3nc(-c4ccc(OC(F)(F)F)cc4)c(Br)o3)c2F)CC1` [Example 46]: the MIC in the test with MRSA was 4 µg/mL (≈ 6.47 µM); in the test on MSSA it was 1 µg/mL (≈ 1.62 µM).

Turning to `CN1CCC(C(=O)NC(=O)c2c(F)ccc(OCc3nc(-c4ccc(OC(F)(F)F)cc4)ns3)c2F)CC1` [Example 47], the MIC turned out to be 1 µg/mL (≈ 1.8 µM) with MRSA and 0.0625 µg/mL (≈ 0.112 µM) with MSSA.

In the case of `CC(C)c1csc(COc2ccc(F)c(C(=O)NC(=O)C3CCN(C)CC3)c2F)n1` [Example 48], the MIC in the test with MRSA and in the test on MSSA was 8 µg/mL (≈ 18.3 µM) throughout.

Turning to `CN1CCC(C(=O)NC(=O)c2c(F)ccc(OCc3nc(-c4ccc(C(F)(F)F)cn4)c(Br)o3)c2F)CC1` [Example 49], the MIC was determined as 16 µg/mL (≈ 26.5 µM) with MRSA and 2 µg/mL (≈ 3.31 µM) in the test on MSSA.

As for `CN1CCC(C(=O)NC(=O)c2c(F)ccc(OCc3nc(-c4ccc(C(F)(F)F)cn4)ns3)c2F)CC1` [Example 50], the MIC was determined as 4 µg/mL (≈ 7.39 µM) in the test on MRSA and 1 µg/mL (≈ 1.85 µM) in the test on MSSA.

Consider `CNC(=O)NC(=O)c1c(F)ccc(OCc2nc3cc(Cl)ccc3s2)c1F` [Example 51], for which the MIC in the test on MRSA and in the test on MSSA was above 64 µg/mL throughout.
